Test results taken from patent publication US20090011438A1, “Collagen VI and Cancer” (priority 2004, published 2009).

Key:
Assay type in all cases: cell-based
β-catenin = experiment: Metabolic labeling pulse/chase of β-catenin; conditions: MCF-7 cells, 30 μg/ml, chase 30 min to 2 hrs
Procedure: (§1) FIG. 4 is graphs and a photograph showing that collagen VI stabilizes β-catenin and cyclin D1. […] A TCF/LEF luciferase reporter construct was transfected into MCF-7 cells and luciferase activity was analyzed after treatment either were vehicle (PBS; black bars), collagen VI (30 μg/ml; white bars) or collagen 1 (30 μg/ml; gray bars) in DME-BSA. […] The serum free medium used in the chase contained vehicle, collagen VI (30 μg/ml) or collagen 1 (30 μg/ml). After each time point, immunoprecipitations were performed for β-catenin and analyzed by SDS-PAGE followed by quantitation of β-catenin at each time point. […] MCF-7 cells were exposed for 3 hours to vehicle, human collagen VI (30 μg/ml) or collagen I (30 μg/ml). Cells were then lysed and analyzed for cyclin D1 by western blot analysis. […] Panel D is a photograph of a western blot showing that collagen VI acts in part through NG2 in MCF-7 cells to stabilize cyclin D1. […] Results are shown as the MEAN±SEM in all cases.
Metabolic Labeling for β-catenin. MCF-7 cells, seeded in 6-well plates, were treated in methionine/cysteine deficient DMEM for 1 hour. […]
Collagen VI prevents degradation of endogenous β-catenin in MCF-7 cells. […] To test this, β-catenin levels were monitored over the course of several hours after a pulse/chase reaction. […]

Tcf/Lef = experiment: TOP FLASH (Tcf/Lef) reporter luciferase assay; conditions: MCF-7 cells, 30 μg/ml, 12 hours, vs vehicle
Procedure: as §1
Luciferase Assays. […] Two days prior to the luciferase readout, cells were transiently transfected with the TOPFLASH (contains 4 Tcf/Lef binding elements) luciferase promoter construct as well as a thymidine kinase driven renilla luciferase construct as a transfection control vector (Promega, Madison, Wis.) (Albanese et al., 2003). […]

cyclin D1 = experiment: Cyclin D1 levels by western blot; conditions: MCF-7 cells, treated five hours, vs vehicle
Procedure: FIG. 4 is graphs and a photograph showing that collagen VI stabilizes β-catenin and cyclin D1. […] A TCF/LEF luciferase reporter construct was transfected into MCF-7 cells and luciferase activity was analyzed after treatment either were vehicle (PBS; black bars), collagen VI (30 μg/ml; white bars) or collagen 1 (30 μg/ml; gray bars) in DME-BSA. […] The serum free medium used in the chase contained vehicle, collagen VI (30 μg/ml) or collagen 1 (30 μg/ml). After each time point, immunoprecipitations were performed for β-catenin and analyzed by SDS-PAGE followed by quantitation of β-catenin at each time point. […] Cells were then lysed and analyzed for cyclin D1 by western blot analysis. […] Panel D is a photograph of a western blot showing that collagen VI acts in part through NG2 in MCF-7 cells to stabilize cyclin D1. […] Results are shown as the MEAN±SEM in all cases.
Immunoblotting. Separation of proteins by sodium dodecyl sulfate (SDS)-poly acrylamide gel electrophoresis (PAGE) fluorography, and immunoblotting were performed as previously described (Scherer et al., 1994). […]
Collagen VI increases cyclin D1 protein stability through NG2/CSPG. […] MCF-7 cells pretreated with the αNG2/CSPG antibody were exposed to collagen VI protein, and cyclin D1 levels were monitored. […]

induction of Tcf/Lef activity (Tcf/Lef): did not activate
Substance: collagen I: Human collagen I obtained from Collaborative Biomedical Products; comparison protein
degradation of 35S-labeled β-catenin (β-catenin): marginal stabilization | cyclin D1 levels (cyclin D1): no significant change
